Results on 2 molecules are retold here after patent US12156873B2, “Composition for treating ocular hyperemia and a method for treating ocular hyperemia with the same” (ADS Therapeutics LLC, priority 2018, dated 2024).

Holding throughout (format): in vivo
Data set [1] relates to Ocular hyperemia patients. Briefly: Ocular hyperemia patients treated topically with emulsion formulations BID for 2 weeks, hyperemia graded from eye pictures. On the procedure:
Ocular hyperemia patients with hyperemia grade >2 (0-4, five-point scale; 0 being clear of hyperemia and 4 being of severe hyperemia) are selected for treatment with 4 emulsion formulations. Each group has about 20 patients. The patients are assigned to the groups in a way to make sure the base line average grade is similar among the groups. The formulations are dosed twice a day (BID) for 2 weeks and the patients are further followed up for 4 weeks. The formulations are administered topically by a physician on the day of visits or by the patient between visits. Patients are evaluated on day 1, week 1, and 2, before and after dosing. After the stop of dosing, patients are further followed up at 4 and 6 weeks.
The effect on ocular hyperemia is evaluated by taking pictures of the eye. […] The tolerability of the formulations is also evaluated with standard eye examinations commonly used for such assessment. The efficacy and tolerability data are analyzed by independent statisticians.

For data set [2], the system named is pterygium patients. Briefly: Phase 2a clinical trial stage 2: 0.2% nintedanib eye drop vs vehicle, 28 days TID, pterygium vascularity graded from photographs. The protocol:
(§1) Nintedanib was formulated into an eye drop and tested in pterygium patients in a Phase 2a clinical trial to evaluate the safety and efficacy of nintedanib. The key efficacy endpoint is effects on pterygium vascularity.
In stage 2, the safety, tolerability and efficacy of the 0.2% formulation were evaluated in a randomized, double-masked, vehicle-controlled, parallel study with 28 days TID repeat ocular dosing of vehicle and 0.2% nintedanib. The patients were further followed up by 20 weeks of post-dosing observation. Ophthalmic and physical examinations were performed at screening, Day 1 and Week 2, 4, 8, 16, and 24. External photograph of the pterygium eye was taken using a digital camera and the pterygium vascularity was graded from these images at an independent image reading center. The primary objective is to evaluate ocular and systemic safety of nintedanib in pterygium patients that have moderate to severe pterygium vascularity. The secondary objective is to assess whether the formulation is efficacious in reducing pterygium vascularity.
A total of 50 patients were enrolled and randomized in a 1:1 treatment allocation to receive either nintedanib or vehicle. The final analysis was performed after study completion. The O'Brien-Fleming group-sequential method was used for a multiple-comparison adjustment of p-values for efficacy. For the final analysis, a 2-sided test with p-value ≤0.048 is considered statistically significant for all between and within treatment comparisons.

Data set [3] relates to pterygium patients. Briefly: Phase 2a clinical trial stage 1: single dose escalating safety, tolerability and pharmacokinetics study. The note with it: single dose 0.02%, 0.05%, 0.2% eye drop. The protocol: as §1
The clinic trial was conducted in two stages. In stage 1, the safety, tolerability and pharmacokinetics were evaluated in a single dose escalating study. Three dose cohorts with 8 patients in each were evaluated. Cohort 1 began at the lowest concentration of 0.02% nintedanib (weight percent based on the total weight of the eye drop), followed by an increasing dose to 0.05% for Cohort 2 and then to 0.2% for Cohort 3.

The mark [4] stands for this setting: Day 1 before dosing (baseline), 0-4 five-point scale, BID topical.
Where [5] appears, read: Wee 4 (follow-up, 2 weeks after stop of dosing), 0-4 scale.
The mark [6] stands for this setting: Week 6 (follow-up, 4 weeks after stop of dosing), 0-4 scale.

Take `Brc1c(NC2=NCCN2)ccc2nccnc12` [Brimonidine, (5-Bromoquinoxalin-6-yl)-(4,5-dihydro-1H-imidazol-2-yl)-amine]: the “Average Hyperemia Grade” value in data set [1] (Day 1 2 h post, 0-4 scale) is on record as 2; in data set [1] (Day 1 6 h post, 0-4 scale), 3; in data set [1] (setting [4]), 3; in data set [1] (setting [5]), 3; in data set [1] (Week 1 2 h post, 0-4 scale), 2; in data set [1] (Week 1 before, 0-4 scale), 3. Besides, the “Average Hyperemia Grade” value in data set [1] (Week 2 2 h post, 0-4 scale) amounted to 2; in data set [1] (Week 2 before, 0-4 scale) it was 3; in data set [1] (setting [6]), 3. Further, the “duration of effect on hyperemia grade at each of the visits” value in data set [1] (after dosing) was in the range of 2 to 4 h. Besides, in data set [1] (day 1, week 1 and 2), the “hyperemia grade after dosing” value was “reduced immediately after dosing”. Further, the “hyperemia grade after stop of treatments” value in data set [1] (week 4 and 6) was “the same as the baseline”.
Regarding `COC(=O)c1ccc2c(c1)NC(=O)/C2=C(\Nc1ccc(N(C)C(=O)CN2CCN(C)CC2)cc1)c1ccccc1` [Nintedanib, (Z)-3-(1-(4-(N-((4-methyl-piperazin-1-yl)-methylcarbonyl)-N-methyl-amino)-phenylamino)-1-phenyl-methylene]-6-methoxycarbonyl-2-indolinone], in the data set on pterygium patients [2] (0.2% eye drop, 28 days TID), the safety and tolerability entry is on record as “excellent with no serious adverse events”. The “Mean grade Difference, nintedanib vs vehicle (pterygium vascularity)” value was −0.15 in the data set on pterygium patients [2] (Day 1 (baseline)); −0.87 with pterygium patients [2] (Week 2); −0.91 in the data set on pterygium patients [2] (Week 4 (end of dosing)); −0.53 in the data set on pterygium patients [2] (Week 8); −0.7 with pterygium patients [2] (Week 16); −0.31 in the data set with pterygium patients [2] (Week 24 (end of study)). The “Mean change from baseline Difference, nintedanib vs vehicle (pterygium vascularity)” value with pterygium patients [2] (Week 2) was −0.72; in the data set with pterygium patients [2] (Week 4 (end of dosing)), −0.76; in the data set with pterygium patients [2] (Week 8) it was −0.41; in the data set on pterygium patients [2] (Week 16), −0.59; in the data set on pterygium patients [2] (Week 24 (end of study)), −0.17. The “persistence of effect on pterygium vascularity” value in the data set on pterygium patients [2] (after 28 days TID dosing) was “maintained through Week 16”. The “effect on pterygium vascularity” value in the data set with pterygium patients [2] (by Week 2) is recorded as “highly significant”. Moreover, the “Average Hyperemia Grade” value in data set [1] (Day 1 2 h post, 0-4 scale) is listed as 3; in data set [1] (Day 1 6 h post, 0-4 scale) it was 3; in data set [1] (setting [4]), 3; in data set [1] (setting [5]) it was 2.5; in data set [1] (Week 1 2 h post, 0-4 scale), 2; in data set [1] (Week 1 before, 0-4 scale), 2. Also, the “Average Hyperemia Grade” value in data set [1] (Week 2 2 h post, 0-4 scale) is on record as 2; in data set [1] (Week 2 before, 0-4 scale), 2; in data set [1] (setting [6]) it was 3. In data set [1] (after 2 weeks BID dosing), the “time the grade reduction remained significant after the stop of dosing” value is listed as 2 weeks. Also, in data set [1] (day 1, comparing to the baseline), the “hyperemia grade, drug effect on day 1” value is on record as “did not change significantly”. In data set [1] (week 1 and 2), the “hyperemia grade reduction from baseline” value is recorded as “about 1 grade”. In the data set with pterygium patients [3], the safety entry is recorded as “No safety issues were found at all doses”.
